Consider two molecules from patent US20250092395A1, “A GLUN2D INHIBITOR FOR USE IN THE TREATMENT OR RELAPSE PREVENTION OF A DEPRESSIVE EPISODE” (priority 2022, published 2025).

In one test the test system is CDM mice. In words: Nose-poke sucrose preference test in CDM mice. It is filed as in vivo. To be noted: CDM mice, POST1 and POST2 nights. The source says: Behavioral Readout: After the treatment intervention, animals were either tested in an additional swim session (test day) to measure immobility time or tested in the InteliCage using the Nose-pokes sucrose preference test. For the assessment of the immobility time, mice were videotaped and two independent raters who were blinded to the experimental group analyzed the videos. Immobility time was defined as the cumulative time that the animals spend stationary with only enough movements of the tails or the forepaws to keep the head above the water surface. No distance is actively travelled except for passive floating, no directed movement of the front paws observed and the body of the animal mostly oriented parallel to the walls of the cylinder.
The IntelliCage system (TSE Systems) allows simultaneous analysis of spontaneous and exploratory behavior, activity pattern, and drinking preference of up to 16 group-housed mice implanted with radio-frequency identification (RFID) transponders. The unit consists of an open common space with 4 red shelters in the center and 4 recording corners. Mice have free access to food in the middle of the IntelliCage, water is available in the corners behind remote-controlled guillotine doors. Each corner is equipped with 2 drinking bottles and permits the visit of only one mouse at the same time. The scored parameters—the nosepokes toward the doors and the licks on the bottles—were monitored by a PC-based tracking software (IntelliCage Plus, TSE Systems). Initially, the mice were allowed to adapt to the IntelliCage for at least 7 days with water available ad libitum in all corners. Then for 3 days the animals were habituated to the sucrose taste: in each corner one of the bottles was filled with 1% sucrose solution and the other one with water. Both doors in the corner were open allowing free choice between the bottles. Next, a nosepoke adaptation period was carried out, where all doors were closed and the mice had to perform a nosepoke to open them. The opened door closes automatically after 5 s of drinking. In all tasks involving sucrose-filled bottles, the positions of the bottles were exchanged every 24 h. The Nosepoke SPT protocol was used (see Alboni et al.) for measurement of sucrose preference with gradually increasing effort (number of nosepokes) to reach the sucrose bottles for a short period of time (12 h). In this paradigm each door opens in response to a nosepoke and closes after 5 s licking. The number of nosepokes needed to open a door to a side with a sucrose containing bottle gradually increases (1, 2, 3, 4, 5, 6, 8, 10, 12, 16, 20, 24) after every 8 sucrose licking sessions. For each bottle the number of licks was recorded and the averaged sucrose preference was calculated as percentage of the total number of licks.

Test [1] relates to CA3-CA1 synapse, CA1 pyramidal neurons in hippocampal brain slices. The test is described as follows: LTP/LTD protocols and wash-in in brain slices of unstressed mice, substance in bathing solution. It is filed as cell-based. To be noted: for LTP inducibility, associative LTP protocol (aLTP): bath with picrotoxin, R,S-ketamine 10 μM, S-ketamine 5 μM.
Test [2] relates to NMDAR currents in CA1 pyramidal cells. The test is described as follows: NMDAR currents in voltage-clamp recordings, CA1 pyramidal cells. It is filed as cell-based, mice. The note with it: +40 mV, CNQX, bath application 10 μM. On the procedure:
After 20 min resting time at 35° C., slices were kept at room temperature in aCSF and transferred into the recording chamber (volume approx. 2-3 ml) and continuously superfused with aCSF (rate approx. 5-10 ml/min-). Differential interference contrast video microscopy was used to identify location of CA1 pyramidal neurons (Zeiss Axioskop 2 FS plus, Zeiss Microscopy, Germany). Beside optical identification neurons were classified according to their characteristic firing frequency adaptation to long depolarising current pulses. Borosilicate glass tubes (2.0 mm outer diameter, 0.5 mm wall thickness; Hilgenberg, Germany) were used to pull patch pipettes. Pipettes with a resistance of 5-10 MΩ were used and series resistance of 10-50 MΩ was compensated by bridge balance. Patch pipettes were filled with an internal solution containing (in mM) for EPSP-measurements: 132K-gluconate, 20KCL, 2MgCl2, 10Hepes, 0.1EGTA, 4 Na2ATP, 0.3NaGTP. PH was adjusted to 7.2 with KOH. For current measurements: 135Csgluconate, 2CsCl, 5 QX314, 10 Hepes, 10EGTA, 2MgCl2, 2Na2ATP, 2TEACI, pH was adjusted to 7.2 with HCl. Osmolarity (280-300 mosmol/1) was controlled at the beginning of each experimental day with Osmomat (Gonotec GmbH, Germany).

The test system of test [3] is SOM-dependent feedback loop, CA1 PCs. The test is described as follows: Feedback loop-activating protocol (FLAP) in CA1 PCs. The test is classed as cell-based, mice. The note with it: for synaptic AP probability (conversion of EPSPs to APs) in FLAP: 10 μM washed in, 10-30 min vs baseline; for EPSP amplitude in the FLAP: wash-in of 10 μM after 10 min baseline. On the procedure:
A 300 ms depolarizing current between +100 and +[…] was injected via the patch pipette into a PC to elicit a train of 5-10 APs. After an interval of 600 ms, one EPSP (5-10 mV amplitude) was elicited by Schaffer collateral stimulation. This pattern was continuously repeated at a frequency of 0.2 Hz. Substances were added by bath application after a stable 10 min baseline recording for an additional 20 min. For data analysis the maximum EPSP amplitudes from minutes 0-10 were averaged and compared to averaged maximum EPSP amplitudes from minutes 20-30.
The slope of the EPSP rise at 20% to 40% of its maximal amplitude, at which point an approximately linear increase in its voltage could be assumed, was fitted with Fitmaster software (HEKA, Germany). We analyzed 20 EPSPs before and 20 EPSPs 25-30 minutes after NAB-14 wash-in in the FLAP protocol for each experiment. The coefficient of variation (CV) is the standard deviation of the EPSP slopes divided by the mean. The inverse square of the CV of the postwash-in slopes was divided by the inverse square of the prewash-in slopes and plotted against the corresponding normalized slopes. Pre- and postwash-in measurements from a single experiment are connected by a line. In a standard quantal model for synaptic transmission, synaptic responses are affected either by presynaptic changes in the number of release sites and/or the probability of release or by modifications of the postsynaptic response to a single […]. A change in the ratio of CV-2 reflects a presynaptic action, whereas horizontal lines in the CV-2 plot indicate a change in postsynaptic responsiveness.

Setting [4] is: unstressed mice, NAB-14 in bathing solution.

SMILES strings stand for the structures. Entries after “also recorded” stand apart in the source; their conditions may differ. Counter-ions that a name gives are not always drawn.

Consider `CCN(CC)C(=O)Oc1ccc(C(=O)Nc2cccc3cc[nH]c23)cc1` [NAB-14], for which the sucrose preference entry in the test on CDM mice (NAB (5 μM as printed) injection) is reported as “fully reestablished”. In test [1] (setting [4]), the “EPSP amplitude after aLTD stimulation” value is “strongly increased the EPSP amplitude; also recorded: significant increase” and the “basal EPSP-amplitude / synaptic transmission” value is “did not change synaptic transmission; also recorded: did not affect basal EPSP-amplitude”. Besides, the “IiLTP induced increase of EPSP amplitude” value in test [1] (unstressed mice, NAB-14 in bathing solution, vs control IiLTP) is listed as “increased IiLTP; also recorded: enhance IiLTP induced increase of EPSP amplitude significantly”. In test [2], the “amplitude of NMDAR currents in CA1 pyramidal cells” value (from here on “amplitude of NMDAR currents”) is listed as “no relevant NMDAR reduction”. For the same molecule, in test [3], the “synaptic AP probability (conversion of EPSPs to APs) in FLAP” value was “significant increase in synaptic AP probability” and the “EPSP amplitude in the FLAP” value is given as “significantly increased; also recorded: increased significantly”. Further, in test [3] (NAB-14 10 μM in FLAP), the “PC excitability: number of APs during the burst and input resistance (Rm)” value was “did not significantly change; also recorded: no significant alteration in AP number; also recorded: no significant change in postsynaptic input resistance”. Also, the “coefficient of variation (CV) analysis of EPSP slopes before and after wash-in” value in test [3] (NAB-14 wash-in in FLAP) was “consistent with a postsynaptic mechanism”.
As to `CNC1(c2ccccc2Cl)CCCCC1=O` (stereo not shown) [R,S-ketamine, R,S-Ketamine hydrochloride], in the test on CDM mice (single R,S-ketamine injection, hydrochloride), the sucrose preference result is listed as “renormalized; also recorded: completely reestablished”. In addition, in test [1], the LTD induction result is reported as “could be blocked”; the “paired-pulse ratio (PPR, EPSP2/EPSP1) before and after weak-aLTP (li-LTP) induction” value is “unchanged”. For the same molecule, in test [1] (hydrochloride), the “EPSP amplitude after associative LTD protocol (aLTD, NMDAR-independent)” value was “unaffected; also recorded: neither R,S-ketamine (10 μM) nor S-ketamine (5 μM) had an effect”; the “LTD inducibility, non-associative 1 Hz LTD protocol (NMDAR-dependent)” value is “fully blocked; also recorded: abolished”; the “LTP inducibility, non-associative 100 Hz LTP protocol” value is “significant blockade of inducibility of LTP”; the aLTP induction result is “neither K nor SK blocked aLTP induction; also recorded: not affected”. In addition, in test [1] (hydrochloride), the “low intensity LTP (IiLTP) induction” value is listed as “blocked LTP induction; also recorded: blockade of LTP induction” and the “low intensity LTP (IiLTP), EPSP amplitude” value is “significant increase in EPSP amplitude; also recorded: even enhanced LTP induction”. Also, the “LTP inducibility, associative LTP protocol (aLTP)” value in test [1] (unstressed mice, hydrochloride) is “significant blockade of inducibility of LTP”. Further, the “LTP inducibility, associative LTP protocol (aLTP)” value in test [1] (unstressed mice, listed as K, hydrochloride) is given as “complete inhibition of LTP”. Besides, in test [2] (hydrochloride), the “amplitude of NMDAR currents” value is reported as “reduced the amplitude”. Also, the “amplitude of NMDAR currents” value in test [2] (listed as R,S-Ketamine, hydrochloride) is listed as “significantly blocking NMDAR currents in CA1 cells”. Also, in test [3] (hydrochloride), the “synaptic AP probability (conversion of EPSPs to APs) in FLAP” value was “higher percentage of APs; also recorded: significant increase in synaptic AP probability” and the “EPSP amplitude in the FLAP” value is given as “dramatically increased”. The “EPSP amplitude in the FLAP” value in test [3] (listed as ketamine, hydrochloride) is on record as “increased significantly”.
